One assay relates to M. tuberculosis H37Ra. Nature of the assay: Growth inhibition of M. tuberculosis H37Ra, 48 h cultivation. The format is cell-based, Mycobacterium tuberculosis. The note with it: Mycobacterium tuberculosis, H37RA. As to the method:
(§1) Further analysis of the effect on the synthesis of mycolic acids by metabolic labeling[24],[25] of the model strain M. tuberculosis H37Ra with ^14C acetate was also explored. A 48 h cultivation in the presence of 200 μM of the compounds in the media led to 84% growth inhibition for compound 19; 40% and 33% growth inhibition for compounds 14 and 23, respectively; 38% growth inhibition for compound 24 and isoniazid; 23% growth inhibition for compounds 25 and 26.
The culture of M. tuberculosis H37Ra was grown statically at 37 °C in Middlebrook 7H9 broth (Difco) supplemented with albumin–dextrose–catalase and 0.05% Tween 80. When the culture reached the OD600nm value of 0.290, it was divided into 10 mL aliquots and tested compounds dissolved in DMSO were added at 200 μM final concentrations, while isoniazid that served as a control inhibitor was at 40 μM. The final concentration of DMSO in each culture was at 1%. After 24 h of cultivation with shaking (120 rpm) in the presence of tested inhibitors, ^14C acetate (specific activity of 106 mCi/mmol) was added at a final concentration of 0.5 μCi/mL and the cells were cultivated for the next 24 h.

Assay [1] deals with synthesis of mycolic acids in M. tuberculosis H37Ra. The experiment in a line: Metabolic labeling with 14C acetate, TLC of FAME/MAME (mycolic acid synthesis). The format is cell-based, Mycobacterium tuberculosis. The note with it: 14C acetate labeling. As to the method:
as §1
(§2) Figure 5 (A) TLC of the metabolic labeling experiments of M. tuberculosis H37Ra with ^14C acetate treated with the compounds 14, 19, and 23–26 for the analysis of mycolic acid inhibition. Fatty acid methyl esters, FAME; mycolic acid methyl esters, MAME; isoniazid, INH. (B) TLC of the metabolic labeling experiments of M. tuberculosis H37Ra with ^14C acetate treated with the compounds 14, 19, and 23–26 for the analysis of the lipid inhibition. Trehalose monomycolates, TMM; trehalose dimycolates, TDM; phosphatidylethanolamine, PE; cardiolipin, CL; isoniazid, INH.
The culture of M. tuberculosis H37Ra was grown statically at 37 °C in Middlebrook 7H9 broth (Difco) supplemented with albumin–dextrose–catalase and 0.05% Tween 80. […]
Fatty acid methyl esters (FAMEs) and mycolic acids methyl esters (MAMEs) were prepared from whole cells harvested from 4 mL culture aliquots as previously described.[32] […] 3× and detected by autoradiography.

Assay [2] concerns trehalose monomycolates and dimycolates in M. tuberculosis H37Ra. The experiment in a line: Metabolic labeling with 14C acetate, TLC of lipid profiles (TMM, TDM). The note with it: 200 μM compound, 14C acetate labeling. The format is cell-based, Mycobacterium tuberculosis.
Source text: as §2
The culture of M. tuberculosis H37Ra was grown statically at 37 °C in Middlebrook 7H9 broth (Difco) supplemented with albumin–dextrose–catalase and 0.05% Tween 80. When the culture reached the OD600nm value of 0.290, it was divided into 10 mL aliquots and tested compounds dissolved in DMSO were added at 200 μM final concentrations, while isoniazid that served as a control inhibitor was at 40 μM. The final concentration of DMSO in each culture was at 1%. […]
Lipids were extracted from whole cells as described earlier with minor modifications.[24] […] Five μL of each lipid sample was loaded on the thin-layer chromatography (TLC) silica gel plates (F254, Merck); lipids were separated in chloroform/methanol/water [20:4:0.5] and detected by autoradiography.

In a further assay the target is InhA (Mycobacterium tuberculosis, UniProt P9WGR1). Nature of the assay: InhA enzymatic assay (NADH oxidation at 340 nm, 2-trans-octanoyl-CoA substrate). The format is biochemical. As to the method:
The identified fragment hits were further evaluated by an InhA enzymatic assay using 2-trans-octanoyl-CoA as a substrate.[22]
The carboxylic acid in fragment 1 (P1) was replaced by an isosteric sulfonamide as a linker to synthesize compound 6 (Figure 2b). Docking experiments with Glide XP[23] […] All the synthesized compounds were tested at a concentration of 100 μM using the InhA enzymatic assay.
InhA activity was followed by a colorimetric assay that measured the oxidation of NADH at 340 nm in the presence of 2-trans-octanoyl-CoA as described before in a buffer that contained 30 mM PIPES, pH 7.5, 50 mM NaCl, 0.1 mM EDTA, and 100 nM InhA.[26] This was preincubated for 10 min at room temperature with 0.25 mM NADH and varying concentrations of the compounds with 1% (v/v) DMSO in a 150 μL reaction volume. The reaction was started by the addition of 2-trans-octanoyl-CoA at a final concentration of 1.5 mM, prepared as described previously.[22] Reactions were followed for 20 min using a plate reader (CLARIOstar, BMG LABTECH).

Where two headings read alike, the source gives them in different places.

Chain of InhA (P9WGR1 whole entry, looked up, the tested form may be a part): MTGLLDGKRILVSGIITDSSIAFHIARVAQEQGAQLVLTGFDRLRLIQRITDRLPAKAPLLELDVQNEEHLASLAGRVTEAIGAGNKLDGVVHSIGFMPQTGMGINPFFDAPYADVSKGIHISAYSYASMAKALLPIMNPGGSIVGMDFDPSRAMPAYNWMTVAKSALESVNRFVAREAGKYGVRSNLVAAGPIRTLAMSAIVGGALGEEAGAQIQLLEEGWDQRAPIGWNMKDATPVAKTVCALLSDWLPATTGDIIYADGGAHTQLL

Regarding `NCc1cccc(NS(=O)(=O)/C=C/c2cccc(C(F)(F)F)c2)c1` [compound 19, (E)-N-(3-(Aminomethyl)phenyl)-2-(3-(trifluoromethyl)phenyl)ethene-1-sulfonamide], testing at 200 µM in the assay on M. tuberculosis H37Ra (200 μM compound in the media, 48 h cultivation) gave an inhibition of 84%. Moreover, in assay [1] (200 μM compound), the “effect on synthesis of mycolic acids” value was “slight inhibition”. For the same compound, in assay [2], the “amount of trehalose dimycolates (TDM)” value is reported as “decrease” and the “amount of trehalose monomycolates (TMM)” value is recorded as “accumulation”. Also, the inhibition at 100 µM on InhA (100 μM compound, read-out: Inh % (inhibition percentage of InhA)) is over 90%. The “LE (ligand efficiency)” value on InhA (LE = (1.37 × pIC50)/HA) amounted to 0.31. The same compound yielded an IC50 on InhA (average of three experiments) of 4 µM. For the same compound, the inhibition at 100 µM on InhA (supplementary CSV, read-out: % inhibition) was over 90%.

As for `NNC(=O)c1ccncc1` [isoniazid, reference compound], the inhibition at 40 µM in the assay with M. tuberculosis H37Ra (48 h, read-out: growth inhibition) came to 38%. In addition, the “effect on synthesis of mycolic acids” value in assay [1] (isoniazid control at 40 μM) is recorded as “complete abolition”.

The record behind these values is publication PMC7232676, “Fragment-Based Design of Mycobacterium tuberculosis InhA Inhibitors” (Journal of Medicinal Chemistry, 2020).
